# Test results: patent US5676937A, “Deodorant compositions comprising inhibitors of odor-producing axillary bacterial exoenzymes” (Colgate-Palmolive Company, priority 1995, dated 1997)
# Where two headings read alike, the source gives them in different places.
# Assays:
# beta-glucuronidase [1] = molecular target: T1, beta-glucuronidase (Escherichia coli, UniProt P05804); assay: Semiquantitative assay of beta-glucuronidase (4-MUG to fluorescent 4-MU); assay type: biochemical, E. coli; design: key: + indicates enzyme inhibition; - indicates no enzyme inhibition; settings: test inhibitor at 0.1 mM to 100 mM, 37° C., Tris pH 7, fluorescence by UV lamp
# T1 construct: purchased Sigma Chemical Co
# Method: (§1) B-glucuronidase from E. coli and aryl sulfatase from Aerobacter aerogenes, 4-methyl umbelliferyl glucuronide, 4-methylumbelliferyl sulfate, 4-methylumbelliferone, and D-saccharic acid-.tangle-solidup.-lactone were purchased from Sigma Chemical Co. Sodium hexametaphosphate (SPORIX) was obtained from International Sourcing.
# (§2) Semiquantitative assays of the exoenzymes beta-G and AS were prepared. The enzyme assays measure conversion at 37° C. of the non-fluorescent substrates 4-MUG (for beta-G) and 4-MUS (for AS) to fluorescent product, 4-MU. The assay mixtures contained:
# (§3) For the semiquantitative studies, fluorescence was detected by long-wave UV lamp (Black-Light Eastern Corporation Model XX 15).
# (§4) The effects of inhibitors on the enzymatic reactions were assessed by substituting aqueous Solutions of test inhibitor, at 0.1 mM to 100 mM, for the water. To rule out quenching of the fluorescence reaction by the inhibitors separate tests were performed comparing the fluorescence from 4-MU at the maximum concentration expected in the enzyme reaction mixtures with either inhibitor solution or water.
# (§5) Various inhibiting compounds of mammalian beta-G's and AS's, as well as related materials, were tested in the assay. The classic inhibitor of beta-G is saccharic acid-.tangle-solidup.-lactone (glucarolactone). This material was tested as well as the simple sugars, mannose, fucose and galactosamine and the polysaccharide pullulan. One of the reported inhibitors of beta-G, EDTA, is a strong chelating agent. Also tested against the enzyme were o-phenanthroline, citrate, gluconate, nitrilotriacetate and hexametaphosophate.
# axillary odor = assay: Human clinical study of axillary deodorancy; assay type: in vivo; settings: for Mean Odor Score: four-judge average, ten-point scoring, Zn-GLY […], ACH 5.0%
# Method: The negative control was water. Odor assessments were performed by four experienced professional evaluators from Hill Top Research, using a ten-point scoring system. Ninety subjects were recruited, and baseline scores were established after a twenty-four hour conditioning period. Sixty subjects with highest scores (all greater than 4) were retained for the study.
# During the test the subjects were entered into a regimen of timed, supervised washes with conditioning soap bars, followed by supervised treatments with the test solutions and post-treatment odor evaluation. The evaluations were conducted at 5-hr and 24-hr intervals following treatments 2, 3 and 4 and all aspects were randomized to eliminate any biases.
# Scores of the four judges were averaged for each person, for each evaluation. The axilla-to-axilla difference for each person was taken as the index of the deodorancy of the test material versus the water control.
# The positive control was 5.0% aluminum chlorhydrate. […] The negative control was distilled deionized water.
# The mean odor scores represent the four-judge average odor scores, post-treatment. The control values are the average baseline odor scores for the various cells.
# S. aureus = assay: Minimum inhibitory concentration, S. aureus; assay type: cell-based; settings: ">" = growth at the highest concentration
# Method: (§6) Minimum Inhibitory Concentration (MIC) values of several zinc complexes were measured for three organisms that occur naturally in the axilla: S. epidermidis, S. aureus and a lipophilic diphtheroid.
# (§7) Simple salts of zinc are known to be bacteriostatic. An outcome of the experiments was producing a method to reduce axillary odor without destroying the natural flora of the axilla. Therefore MIC values of several zinc complexes and the antiseptic Irgasan DP 300 (positive control) were measured against several organisms that occur naturally in the underarm, including S epidermidis, S. aureus, and a lipophilic diphtheroid. The ">" signs indicate that bacterial growth occurred at the highest concentration of zinc compound. None of the zinc compounds were conspicuously inhibitory, having effective levels ranging from 0.1 to 1%.
# S. epidermidis = assay: Minimum inhibitory concentration, S. epidermidis; assay type: cell-based; settings: ">" = growth at the highest concentration
# Method: as §6, §7
# lipophilic diphtheroid [2] = assay: Minimum inhibitory concentration, lipophilic diphtheroid; assay type: cell-based; settings: ">" = growth at the highest concentration
# Method: as §6, §7
# beta-glucuronidase [3] = molecular target: T1, beta-glucuronidase; assay: Quantitative fluorimetric assay of beta-G; assay type: biochemical, E. coli; settings: FIG. 3; for level at which inhibition of beta-G is provided: in words; for effective inhibitor concentration range for beta-G: relative initial rate vs log inhibitor concentration, 37° C.
# Method: In addition to the semiquantitative assays several inhibitors of each, beta-G and AS, were assayed by quantitative fluorimetry. […] Prior to the performance of quantitative assays it was necessary to determine absorption and emission maxima of the fluorescent product 4-MU, as well as a concentration range for which the fluorescence intensity of this species varies linearly with concentration. A solution of 4-MU, 2 μg.ml, was prepared in 0.1M Tris buffer, pH 7.0. The absorption spectrum was scanned, giving a maximum at 334 nm. The emission maximum, 444 nm, was obtained by scanning the emission spectrum while irradiating at 334 nm. All quantitative fluorescence studies employed these parameters.
# The levels of 4-MU generated in beta-G and AS assays fell into range 1. The conversion factor was 1 fluorescence unit=0.09 μM 4-MU.
# Samples were prepared as described above. All components, except the enzyme, were warmed to 37° C. before addition of the enzyme. During the assays, reaction mixtures were maintained at 37° C. Fluorescence intensities were measured as a function of time.
# As in the semi-quantitative tests, the progress of the reactions was indicated by the development of fluorescent product 4-MU from the non-fluorescent substrates, 4-MUG and 4-MUS. The data was recorded as fluorescence emission intensity as a function of time. […] Similar plots were constructed for each inhibitor. At each concentration, the beginning slope indicates the initial reaction rate. These rates were then expressed as a fraction of the uninhibited reaction rate and plotted against the log of the inhibitor concentration.
# aryl sulfatase [4] = molecular target: T2, aryl sulfatase (Klebsiella aerogenes, UniProt P20713); assay type: biochemical; design: key: + indicates enzyme inhibition; - indicates no enzyme inhibition
# T2 construct: purchased Sigma Chemical Co
# T2 sequence (P20713 21-464): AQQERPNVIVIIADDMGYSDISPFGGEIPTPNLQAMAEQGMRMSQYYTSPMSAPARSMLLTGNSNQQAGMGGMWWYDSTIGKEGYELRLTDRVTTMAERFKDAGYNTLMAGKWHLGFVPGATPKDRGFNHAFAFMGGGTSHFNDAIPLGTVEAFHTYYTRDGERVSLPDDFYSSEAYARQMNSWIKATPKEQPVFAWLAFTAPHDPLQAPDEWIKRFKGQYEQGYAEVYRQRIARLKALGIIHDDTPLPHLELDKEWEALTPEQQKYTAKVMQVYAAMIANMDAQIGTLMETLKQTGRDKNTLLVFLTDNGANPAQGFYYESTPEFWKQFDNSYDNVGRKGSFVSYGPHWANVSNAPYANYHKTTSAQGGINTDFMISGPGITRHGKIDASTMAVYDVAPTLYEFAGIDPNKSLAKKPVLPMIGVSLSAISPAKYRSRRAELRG
# Method: as §1, §2, §3, §4
# as §5, with “One of the reported inhibitors of beta-G, EDTA, is a strong chelating agent.” left out
# aryl sulfatase [5] = molecular target: T2, aryl sulfatase; assay: Quantitative fluorimetric assay of AS; assay type: biochemical; settings: FIG. 4; relative initial rate vs log inhibitor concentration; 37° C.
# Method: As in the semi-quantitative tests, the progress of the reactions was indicated by the development of fluorescent product 4-MU from the non-fluorescent substrates, 4-MUG and 4-MUS. The data was recorded as fluorescence emission intensity as a function of time. […] At each concentration, the beginning slope indicates the initial reaction rate. These rates were then expressed as a fraction of the uninhibited reaction rate and plotted against the log of the inhibitor concentration.
# mixture of AS and betaG = assay: Inhibition of odor from apocrine secretion treated with enzymes (panel odor evaluation); assay type: biochemical, E. coli; Aerobacter aerogenes; settings: enzymes (AS + betaG) + apocrine sweat + inhibitor 40 mM; 37° C.; evaluated at 24 hr and 48 hr; panel of five
# Method: (§8) Apocrine secretion fluid was collected from eleven subjects. The axillary area was shaved, washed with a 0.1% solution of Triton X-100, rinsed with water, blotted dry, then rinsed with hexane. An intradermal injection of 0.1 ml of 1:2000 adrenaline was performed to stimulate the apocrine glands. Micropipettes (10 μl) were placed directly against the skin to collect the droplets of apocrine secretion. Samples were frozen until ready for use. The samples were eluted from the capillary tubes with 0.1M Tris buffer, pH 7.0, when ready for use in the odor-generation studies. Lipophilic diphtheroid cultures isolated from human axillae were obtained.
# (§9) Inhibiting compounds were then tested to determine their effect on odor production in apocrine secretion. Sterile, odorless apocrine secretion was eluted from capillaries into 1.5 ml of 0.1M Tris buffer, pH 7.0. In the first study, apocrine sweat was treated with beta-glucuronidase, (E. coli) and aryl sulfatase (Aerobacter aerogenes) at 0.01 mg/ml in Tris buffer, 0.1M, pH 7.0. The apocrine secretion was also treated with the lipophilic diphtheroid and with a mixed culture of axillary bacteria, each in sterile saline suspension.
# (§10) In a second study, inhibitors of the two enzymes were included in the reaction mixtures--Zn++ as Zn-Glycinate, saccharic acid lactone and hexametaphosphate. The concentration of each inhibitor used in this study was 40 mM. […]
# lipophilic diphtheroid [6] = assay: Inhibition of odor from apocrine secretion treated with lipophilic diphtheroids (panel odor evaluation); assay type: cell-based; settings: lipophilic diphtheroids + apocrine sweat + inhibitor 40 mM; 37° C.; evaluated at 24 hr and 48 hr; panel of five
# Method: as §8, §9, §10
# [7] = test inhibitor at 0.1 mM to 100 mM, 4-MUS, 37° C., Tris pH 7, fluorescence by UV lamp
# T1 sequence (P05804 whole entry): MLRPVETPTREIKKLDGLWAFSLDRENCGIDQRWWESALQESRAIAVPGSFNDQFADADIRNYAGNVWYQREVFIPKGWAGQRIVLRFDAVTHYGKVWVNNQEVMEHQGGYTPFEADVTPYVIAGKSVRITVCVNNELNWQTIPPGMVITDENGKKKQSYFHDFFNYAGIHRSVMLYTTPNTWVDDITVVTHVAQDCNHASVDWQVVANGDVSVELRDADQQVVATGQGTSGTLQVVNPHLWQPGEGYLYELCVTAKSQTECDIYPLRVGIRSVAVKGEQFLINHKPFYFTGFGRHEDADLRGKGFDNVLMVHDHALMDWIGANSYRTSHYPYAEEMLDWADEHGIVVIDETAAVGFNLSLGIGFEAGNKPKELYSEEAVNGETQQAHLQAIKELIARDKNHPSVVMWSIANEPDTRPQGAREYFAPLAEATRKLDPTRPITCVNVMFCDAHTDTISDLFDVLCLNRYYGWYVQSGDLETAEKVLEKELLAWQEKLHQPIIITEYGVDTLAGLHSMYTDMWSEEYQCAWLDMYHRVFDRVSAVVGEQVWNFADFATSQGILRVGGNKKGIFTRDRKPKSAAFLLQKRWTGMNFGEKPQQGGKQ
compound,measurement,setting,value
O=S(=O)([O-])[O-].[Na+].[Na+] [Sodium sulfate],inhibition of BETA-G,beta-glucuronidase [1],+
pullulan,inhibition of BETA-G,beta-glucuronidase [1],-
aluminum chlorhydrate [ACH],% Difference (decrease in odor vs H2O axilla),"axillary odor; application #2, 5 hr",34.0%
same,Mean Odor Score,"axillary odor; application #2, 5 hr",3.13
same,% Difference (decrease in odor vs H2O axilla),"axillary odor; application #2, 24 hr",27.8%
same,Mean Odor Score,"axillary odor; application #2, 24 hr",3.91
same,% Difference (decrease in odor vs H2O axilla),"axillary odor; application #3, 5 hr",28.8%
same,Mean Odor Score,"axillary odor; application #3, 5 hr",2.95
same,% Difference (decrease in odor vs H2O axilla),"axillary odor; application #3, 24 hr",26.1%
same,Mean Odor Score,"axillary odor; application #3, 24 hr",3.88
same,% Difference (decrease in odor vs H2O axilla),"axillary odor; application #4, 5 hr",34.9%
same,Mean Odor Score,"axillary odor; application #4, 5 hr",2.90
same,% Difference (decrease in odor vs H2O axilla),"axillary odor; application #4, 24 hr",29.5%
same,Mean Odor Score,"axillary odor; application #4, 24 hr",3.64
fucose,inhibition of BETA-G,beta-glucuronidase [1],-
[Cl-].[Cl-].[Zn+2] [ZnCl2],"MIC, STAPHYLOCOCCUS AUREUS",S. aureus,> 1000 ppm
same,"MIC, STAPHYLOCOCCUS EPIDERMIS",S. epidermidis,> 1000 ppm
same,"MIC, LIPOPHILIC DIPHTHEROID",lipophilic diphtheroid [2],> 1000 ppm
"c1cnc2c(c1)ccc1cccnc12 [O-phenanthroline, o-phenanthroline]",inhibition of BETA-G,beta-glucuronidase [1],+
same,level at which inhibition of beta-G is provided,beta-glucuronidase [3],millimolar levels
[Cu+2] [Cu++],inhibition of BETA-G,beta-glucuronidase [1],+
same,effective inhibitor concentration range for beta-G,beta-glucuronidase [3],10 to 100 µM
same,inhibition of AS,aryl sulfatase [4]; [7],+
same,effective inhibitor concentration range for AS,aryl sulfatase [5],0.1 to 10 µM
"O=C(O)CN(CCN(CC(=O)O)CC(=O)O)CC(=O)O [EDTA, reference compound]",inhibition of BETA-G,beta-glucuronidase [1],+
same,level at which inhibition of beta-G is provided,beta-glucuronidase [3],millimolar levels
same,inhibition of AS,aryl sulfatase [4]; [7],-
"O=P1([O-])OP(=O)([O-])OP(=O)([O-])OP(=O)([O-])OP(=O)([O-])OP(=O)([O-])O1.[Na+].[Na+].[Na+].[Na+].[Na+].[Na+] [hexametaphosphate, Sodium hexametaphosphate]",odor,mixture of AS and betaG,Faint/moderate musky-sweaty
same,inhibition of BETA-G,beta-glucuronidase [1],+
same,inhibition of AS,aryl sulfatase [4]; [7],+
same,effective inhibitor concentration range for AS,aryl sulfatase [5],10-100 82 M
O=P(O)(O)O [Orthophosphate],inhibition of AS,aryl sulfatase [4]; pH 7,+
"O=C(O)[C@@H](O)[C@H]1OC(=O)[C@H](O)[C@H]1O [D-glucaro-.tangle-solidup.-lactone, D-saccharic acid-.tangle-solidup.-lactone, reference compound]",odor,mixture of AS and betaG,No odor to faint musky-sweaty
same,inhibition of BETA-G,beta-glucuronidase [1],+
same,effective inhibitor concentration range for beta-G,beta-glucuronidase [3],1-10 μm
same,odor,lipophilic diphtheroid [6],Moderate sweaty
[Zn+2] [Zn++],inhibition of BETA-G,beta-glucuronidase [1],+
same,effective inhibitor concentration range for beta-G,beta-glucuronidase [3],10 to 100 µM
same,inhibition of AS,aryl sulfatase [4]; [7],+
same,effective inhibitor concentration range for AS,aryl sulfatase [5],10-100 82 M
"N[C@H]1C(O)O[C@H](CO)[C@H](O)[C@@H]1O (stereo partly shown) [Galactosamine, galactosamine]",inhibition of BETA-G,beta-glucuronidase [1],-
"Oc1cc(Cl)ccc1Oc1ccc(Cl)cc1Cl [Irgasan, reference compound]","MIC, STAPHYLOCOCCUS AUREUS",S. aureus,< 0.5 ppm
same,"MIC, STAPHYLOCOCCUS EPIDERMIS",S. epidermidis,< 0.5 ppm
same,"MIC, LIPOPHILIC DIPHTHEROID",lipophilic diphtheroid [2],16 ppm
mannose,inhibition of BETA-G,beta-glucuronidase [1],-
O=C(O)CC(O)(CC(=O)O)C(=O)O [Citrate],inhibition of BETA-G,beta-glucuronidase [1],-
